Laboratory results: US20020016468A1 (published 2002)

Compared with `CSc1c(C(N)=S)nn(-c2c(Cl)cc(C(F)(F)F)cc2Cl)c1N`, `NC(=S)c1nn(-c2c(Cl)cc(C(F)(F)F)cc2Cl)c(N)c1SC(F)(F)F` is higher in melting point: 161 °C for the first, 182 °C for the second.

Going from `CC[S+]([O-])c1c(C(N)=S)nn(-c2c(Cl)cc(C(F)(F)F)cc2Br)c1N` (stereo not shown) to `C[S+]([O-])c1c(C(N)=S)nn(-c2c(Cl)cc(C(F)(F)F)cc2Br)c1N` (stereo not shown), the melting point rises from 113.5 °C to 188.5 °C.

Compared with `CC[S+]([O-])c1c(C(N)=S)nn(-c2c(Cl)cc(OC(F)(F)F)cc2Cl)c1N` (stereo not shown), `C[S+]([O-])c1c(C(N)=S)nn(-c2c(Cl)cc(OC(F)(F)F)cc2Cl)c1N` (stereo not shown) is higher in melting point: 102 °C for the first, 137 °C for the second.

Compared with `C[S+]([O-])c1c(C(N)=S)nn(-c2c(Cl)cc(C(F)(F)F)cc2Cl)c1N` (stereo not shown), `CC[S+]([O-])c1c(C(N)=S)nn(-c2c(Cl)cc(C(F)(F)F)cc2Cl)c1N` (stereo not shown) is lower in melting point: 192 °C for the first, 167 °C for the second.

Going from `CS(=O)(=O)c1c(C(N)=S)nn(-c2c(Cl)cc(C(F)(F)F)cc2Cl)c1N` to `C[S+]([O-])c1c(C(N)=S)nn(-c2ccc(C(F)(F)F)cc2Cl)c1N` (stereo not shown), the melting point falls from 231 °C to 153.5 °C.
